Data set [1] has as its target T1, recombinant human FAP protein (Homo sapiens, UniProt Q12884).
T1 construct: purchased Sino Biological Inc., Beijing, China 10464-H07H
T1 sequence (Q12884 1-760): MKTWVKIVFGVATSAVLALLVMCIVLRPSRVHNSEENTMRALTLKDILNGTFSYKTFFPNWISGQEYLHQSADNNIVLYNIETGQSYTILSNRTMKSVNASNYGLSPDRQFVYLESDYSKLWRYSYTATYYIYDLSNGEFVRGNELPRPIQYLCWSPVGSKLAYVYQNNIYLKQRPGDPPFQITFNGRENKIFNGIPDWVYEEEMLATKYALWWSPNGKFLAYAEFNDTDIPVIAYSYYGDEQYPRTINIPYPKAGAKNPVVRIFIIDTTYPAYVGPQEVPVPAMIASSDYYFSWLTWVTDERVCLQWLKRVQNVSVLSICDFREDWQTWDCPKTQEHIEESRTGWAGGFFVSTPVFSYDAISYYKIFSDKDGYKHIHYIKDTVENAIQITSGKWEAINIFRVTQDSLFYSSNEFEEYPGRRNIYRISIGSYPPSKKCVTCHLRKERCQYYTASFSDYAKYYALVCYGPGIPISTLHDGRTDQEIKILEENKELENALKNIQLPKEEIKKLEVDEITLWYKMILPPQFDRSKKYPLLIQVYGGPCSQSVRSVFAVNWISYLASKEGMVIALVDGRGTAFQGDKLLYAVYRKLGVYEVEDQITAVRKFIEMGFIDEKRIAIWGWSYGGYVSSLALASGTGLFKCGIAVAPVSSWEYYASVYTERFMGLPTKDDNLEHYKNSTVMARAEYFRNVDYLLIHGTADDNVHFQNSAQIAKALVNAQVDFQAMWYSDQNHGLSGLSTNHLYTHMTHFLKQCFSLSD
The experiment in a line: Biacore SPR binding affinity measurement. As to conditions: read-out: KD (equilibrium dissociation constant). How it is done: In order to determine the binding kinetics between ligands and human FAP protein (10464-H07H, Sino Biological Inc., Beijing, China), the Biacore SPR interaction study was conducted. The binding affinity is expressed by the equilibrium dissociation constant (KD) (M), which is calculated from the values of the measured binding rate constant (ka) (M^−1 s^−1) and dissociation rate (kd) (s^−1).
In general terms: SPR reads the build-up and loss of mass on a sensor chip optically.

Data set [2] in a line: Octanol-water partition coefficient (n-octanol/PBS). The format is physicochemical. The settings on record: n-octanol/PBS 1:1, ambient temperature. As for the experimental part: Radiotracers [^68Ga]Ga-DOTA-FAPI-04 and [^18F]AlF-H3RESCA-FAPI (0.37 MBq, about 50 µL) were added to tubes containing n-octanol/PBS mixture (1 mL, 1:1). The mixture was vortexed vigorously for 5 min at ambient temperature and then centrifuged for five min at 8000 rpm. In each phase, three samples (each 50 µL) were removed and measured in γ-counter (PerkinElmer). The partition coefficient was expressed as an equation as follows:(1) LogD7.4=LogCPM(n−octanol)/CPM(PBS)

Structures are written as SMILES.

Broadly, the Kd is a measure of binding affinity in units of concentration. Regarding `N#C[C@@H]1CC(F)(F)CN1C(=O)CNC(=O)c1ccnc2ccc(OCCCN3CCN(C(=O)Cc4ccc(CN(CC(=O)O)[C@@H]5CCCC[C@H]5N(CC(=O)O)CC(=O)O)cc4)CC3)cc12` [H3RESCA-FAPI, 2,2′-(((1R,2R)-2-((carboxymethyl)(4-(2-(4-(3-((4-((2-((S)-2-cyano-4,4-difluoropyrrolidin-1-yl)-2-oxoethyl)carbamoyl)quinolin-6-yl)oxy)propyl)piperazin-1-yl)-2-oxoethyl)benzyl)amino)cyclohexyl)azanediyl)diacetic acid], the Kd in data set [1] was under 0.0101 nM.

For `N#C[C@@H]1CC(F)(F)CN1C(=O)CNC(=O)c1ccnc2ccc(OCCCN3CCN(C(=O)CN4CCN(CC(=O)[O-])CCN(CC(=O)O)CCN(CC(=O)[O-])CC4)CC3)cc12.[68Ga+3]` [[^68Ga]Ga-DOTA-FAPI-04], the “logD7.4 (octanol-water partition coefficient)” value in data set [2] is reported as −3.53 ± 0.05.

The values above are taken from publication PMC11859916, “Design, Synthesis, and Biological Evaluation of a Novel [^18F]AlF-H3RESCA-FAPI Radiotracer Targeting Fibroblast Activation Protein” (Pharmaceuticals, 2025).
